Measured values published in US20240335431A1, “1-H-PYRROLO[2,3-c]PYRIDINE COMPOUNDS” (Acerta Pharma B.V., priority 2023, published 2024).

Columns and labels:
[1] = system: OCI-AML3 cells; test: Proliferation assay, OCI-AML3 (CellTiter-Glo, 7 days); format: cell-based, human; conditions: Homo sapiens, OCI-AML-3, 168 h
In short: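 Cells seeded at 125 (MOLM-13), 300 (MV4;11), 75 (OCI-AML3) or 200 (HEL) per well were exposed to 3.16-fold compound dilutions (0.1% DMSO) for 7 days at 37° C. Viability by CellTiter-Glo luminescence, normalized to DMSO (100%) and day-0 plate (0%); IC50 from one-site dose-response fit.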

[2] = target: hERG (Homo sapiens (Human), UniProt Q12809); test: hERG assay 1 (standard), SyncroPatch 384PE; format: cell-based; conditions: CHO cells, room temperature, up to 40 uM
Sequence of hERG (Q12809 whole entry): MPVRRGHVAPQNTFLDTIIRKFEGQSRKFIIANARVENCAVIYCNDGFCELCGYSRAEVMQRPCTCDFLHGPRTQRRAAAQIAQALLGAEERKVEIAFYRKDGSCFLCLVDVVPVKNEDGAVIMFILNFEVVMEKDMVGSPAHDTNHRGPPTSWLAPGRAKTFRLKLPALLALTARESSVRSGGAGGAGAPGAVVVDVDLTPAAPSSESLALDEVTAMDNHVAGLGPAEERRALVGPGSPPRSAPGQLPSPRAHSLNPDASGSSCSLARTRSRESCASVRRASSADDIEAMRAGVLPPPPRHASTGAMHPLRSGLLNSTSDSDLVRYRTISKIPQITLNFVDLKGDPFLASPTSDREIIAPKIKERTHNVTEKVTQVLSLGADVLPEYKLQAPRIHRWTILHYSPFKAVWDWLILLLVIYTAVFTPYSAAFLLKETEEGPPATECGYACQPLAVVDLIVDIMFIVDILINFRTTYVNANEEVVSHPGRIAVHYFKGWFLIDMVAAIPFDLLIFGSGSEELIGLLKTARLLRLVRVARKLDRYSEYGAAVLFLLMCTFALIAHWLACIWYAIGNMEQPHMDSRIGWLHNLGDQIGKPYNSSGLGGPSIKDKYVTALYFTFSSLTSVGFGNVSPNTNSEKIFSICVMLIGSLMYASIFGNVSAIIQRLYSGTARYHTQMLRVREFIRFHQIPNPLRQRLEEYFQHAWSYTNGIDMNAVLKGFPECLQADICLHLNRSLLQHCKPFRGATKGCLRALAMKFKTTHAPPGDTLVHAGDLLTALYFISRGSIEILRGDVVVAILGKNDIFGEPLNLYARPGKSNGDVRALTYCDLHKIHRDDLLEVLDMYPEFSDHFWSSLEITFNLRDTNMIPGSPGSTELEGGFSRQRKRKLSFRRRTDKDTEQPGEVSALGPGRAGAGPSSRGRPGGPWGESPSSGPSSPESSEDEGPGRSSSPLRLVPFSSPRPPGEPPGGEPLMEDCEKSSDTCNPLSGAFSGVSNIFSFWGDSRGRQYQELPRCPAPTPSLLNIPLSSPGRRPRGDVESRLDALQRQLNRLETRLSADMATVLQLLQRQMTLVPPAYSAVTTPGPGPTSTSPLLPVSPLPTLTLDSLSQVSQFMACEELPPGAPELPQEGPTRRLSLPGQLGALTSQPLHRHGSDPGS
In short: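 Automated patch clamp on hERG-expressing CHO-K1 cells at room temperature, +60/−40 mV protocol every 15 s. Six-point cumulative concentrations 139 nM to 40 uM (0.33% DMSO final); IC50 from one-site fit of % inhibition. Wells required ≥30 MegaOhm seal, current >0.2 nA, Z prime >0.4.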

[3] = Caco-2 cell monolayers intrinsic permeation assay in the presence of efflux inhibitors; format: in vitro ADME; conditions: Caco-2, with efflux inhibitors
In short: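 Caco-2 monolayers grown 14–18 days on Transwells; compound dosed apically in HBSS with efflux inhibitors (Zosuquidar, Benzbromarone, KO-143), inhibitors also basolateral, 37 °C with shaking. Sampled at 0, 45 and 120 min, analysed by LC/MS/MS; apical-to-basolateral Papp (cm/s) calculated.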

Structure (SMILES) | IC50 [1] [nM] | IC50 [2] [µM] | Papp A→B [3] [×10⁻⁶ cm/s]
CC(C)N(C(=O)c1cc(F)ccc1-n1cc(C(=O)[C@H]2CCN(C[C@H]3CC[C@H](NS(C)(=O)=O)CC3)C2)c2ccncc21)C(C)C [Example 1, 5-Fluoro-N,N-diisopropyl-2-(3-((S)-1-(((1r,4S)-4-(methylsulfonamido)-cyclohexyl)methyl)pyrrolidine-3-carbonyl)-1H-pyrrolo[2,3-c]pyridin-1-yl)benzamide] | 313 | 9.9 | 2.7
CC(C)N(C(=O)c1cc(F)ccc1-n1cc(C(=O)[C@H]2CCN(C(=O)[C@H]3N[C@@H]4CC[C@H]3C4)C2)c2ccncc21)C(C)C [Example 2, 2-(3-((S)-1-((1R,3S,4S)-2-Azabicyclo[2.2.1]heptane-3-carbonyl)pyrrolidine-3-carbonyl)-1H-pyrrolo[2,3-c]pyridin-1-yl)-5-fluoro-N,N-diisopropylbenzamide] | 126 | > 40 | 0.4
CC(C)N(C(=O)c1cc(F)ccc1-n1cc(C(=O)[C@@H]2CCN(C(=O)[C@H]3N[C@@H]4CC[C@H]3C4)C2)c2ccncc21)C(C)C [Example 3, 2-(3-((R)-1-((1R,3S,4S)-2-Azabicyclo[2.2.1]heptane-3-carbonyl)pyrrolidine-3-carbonyl)-1H-pyrrolo[2,3-c]pyridin-1-yl)-5-fluoro-N,N-diisopropylbenzamide] | 113 | 38.8 | 0.3
CC(C)N(C(=O)c1cc(F)ccc1-n1cc(C(=O)[C@@H]2CCN(C[C@H]3CC[C@H](NS(C)(=O)=O)CC3)C2)c2ccncc21)C(C)C [Example 4, 5-Fluoro-N,N-diisopropyl-2-(3-((R)-1-(((1r,4R)-4-(methylsulfonamido)-cyclohexyl)methyl)pyrrolidine-3-carbonyl)-1H-pyrrolo[2,3-c]pyridin-1-yl)benzamide] | 223 | 6.3 | 2
CC(C)N(C(=O)c1cc(F)ccc1-n1cc(C(=O)C2CN(C(=O)[C@H]3N[C@@H]4CC[C@H]3C4)C2)c2ccncc21)C(C)C [Example 5, 2-(3-(1-((1R,3S,4S)-2-Azabicyclo[2.2.1]heptane-3-carbonyl)azetidine-3-carbonyl)-1H-pyrrolo[2,3-c]pyridin-1-yl)-5-fluoro-N,N-diisopropylbenzamide] | 125 | > 40 | 1.2
CC(C)N(C(=O)c1cc(F)ccc1-n1cc(C(=O)C2CN(C(=O)[C@H]3N[C@H]4C[C@@H]3[C@@H](F)C4)C2)c2ccncc21)C(C)C [Example 7, 5-Fluoro-2-(3-(1-((1S,3S,4S,5S)-5-fluoro-2-azabicyclo[2.2.1]heptane-3-carbonyl)azetidine-3-carbonyl)-1H-pyrrolo[2,3-c]pyridin-1-yl)-N,N-diisopropylbenzamide] | 115 | > 40 | 2.2
CCN(C(=O)c1cc(F)ccc1-n1cc(C(=O)C2CN(C(=O)[C@H]3N[C@@H]4CC[C@H]3C4)C2)c2ccncc21)C(C)C [Example 8, 2-(3-(1-((1R,3S,4S)-2-Azabicyclo[2.2.1]heptane-3-carbonyl)azetidine-3-carbonyl)-1H-pyrrolo[2,3-c]pyridin-1-yl)-N-ethyl-5-fluoro-N-isopropylbenzamide] | 193 | > 40 | 0.2
CC(C)c1ncccc1-c1cc(F)ccc1-n1cc(C(=O)C2CN(C(=O)[C@H]3N[C@@H]4CC[C@H]3C4)C2)c2ccncc21 [Example 10, (1-((1R,3S,4S)-2-Azabicyclo[2.2.1]heptane-3-carbonyl)azetidin-3-yl)(1-(4-fluoro-2-(2-isopropylpyridin-3-yl)phenyl)-1H-pyrrolo[2,3-c]pyridin-3-yl)methanone] | 24 | > 40 | 2.6
CC(C)c1cnccc1-c1cc(F)ccc1-n1cc(C(=O)C2CN(C(=O)[C@H]3N[C@@H]4CC[C@H]3C4)C2)c2ccncc21.O=CO [Example 11, (1-((1R,3S,4S)-2-Azabicyclo[2.2.1]heptane-3-carbonyl)azetidin-3-yl)(1-(4-fluoro-2-(3-isopropylpyridin-4-yl)phenyl)-1H-pyrrolo[2,3-c]pyridin-3-yl)methanone 1·formic acid] | 51 | > 40 | 0.7
CC(C)(F)c1ncccc1-c1cc(F)ccc1-n1cc(C(=O)C2CN(C(=O)[C@H]3N[C@@H]4CC[C@H]3C4)C2)c2ccncc21 [Example 13, (1-((1R,3S,4S)-2-Azabicyclo[2.2.1]heptane-3-carbonyl)azetidin-3-yl)(1-(4-fluoro-2-(2-(2-fluoropropan-2-yl)pyridin-3-yl)phenyl)-1H-pyrrolo[2,3-c]pyridin-3-yl)methanone] | 37 | 35.8 | 1.7
CC(C)N(C(=O)c1cc(F)ccc1-n1cc(C(=O)C2CN(C(=O)[C@H]3N[C@@H]4CC[C@H]3C4)C2)c2ccnc(F)c21)C(C)C [Example 15, 2-(3-(1-((1R,3S,4S)-2-Azabicyclo[2.2.1]heptane-3-carbonyl)azetidine-3-carbonyl)-7-fluoro-1H-pyrrolo[2,3-c]pyridin-1-yl)-5-fluoro-N,N-diisopropylbenzamide] | 103 | 24.9 | 4.2
CC(C)N(C(=O)c1cc(F)ccc1-n1cc(C(=O)C2CCN(C(=O)[C@H]3N[C@@H]4CC[C@H]3C4)CC2)c2ccncc21)C(C)C [Example 16, 2-(3-(1-((1R,3S,4S)-2-Azabicyclo[2.2.1]heptane-3-carbonyl)piperidine-4-carbonyl)-1H-pyrrolo[2,3-c]pyridin-1-yl)-5-fluoro-N,N-diisopropylbenzamide] | 51 | > 40 | 0.6
CC(C)N(C(=O)c1cc(F)ccc1-n1cc(C(=O)C2CCN(C[C@H]3CC[C@H](NS(C)(=O)=O)CC3)CC2)c2ccncc21)C(C)C [Example 17, 5-Fluoro-N,N-diisopropyl-2-(3-(1-(((1r,4r)-4-(methylsulfonamido)cyclohexyl)-methyl)piperidine-4-carbonyl)-1H-pyrrolo[2,3-c]pyridin-1-yl)benzamide] | 356 | 9.1 | 1.8
CC(C)N(C(=O)c1cc(F)ccc1-n1cc(C(=O)C2CCN(C(=O)[C@@H]3CCC4(CC4)N3)CC2)c2ccncc21)C(C)C [Example 24, (S)-2-(3-(1-(4-Azaspiro[2.4]heptane-5-carbonyl)piperidine-4-carbonyl)-1H-pyrrolo[2,3-c]pyridin-1-yl)-5-fluoro-N,N-diisopropylbenzamide] | 21 | 38.3 | 18.2
CC(C)N(C(=O)c1cc(F)ccc1-n1cc(C(=O)C2CCN(C(=O)[C@@H]3CC4(CC4)CN3)CC2)c2ccncc21)C(C)C [Example 26, (S)-2-(3-(1-(5-Azaspiro[2.4]heptane-6-carbonyl)piperidine-4-carbonyl)-1H-pyrrolo[2,3-c]pyridin-1-yl)-5-fluoro-N,N-diisopropylbenzamide] | 140 | > 40 | 0.8
CC(C)N(C(=O)c1cc(F)ccc1-n1cc(C(=O)C2CCN(C(=O)[C@@H]3CCC(C)(C)N3)CC2)c2ccncc21)C(C)C [Example 27, (S)-2-(3-(1-(5,5-Dimethylpyrrolidine-2-carbonyl)piperidine-4-carbonyl)-1H-pyrrolo[2,3-c]pyridin-1-yl)-5-fluoro-N,N-diisopropylbenzamide] | 34 | > 40 | 1.9
CCN(C(=O)c1cc(F)ccc1-n1cc(C(=O)C2CCN(C(=O)[C@H]3N[C@H]4C[C@@H]3[C@@H](F)C4)CC2)c2ccncc21)C(C)C [Example 30, N-Ethyl-5-fluoro-2-(3-(1-((1S,3S,4S,5S)-5-fluoro-2-azabicyclo[2.2.1]heptane-3-carbonyl)piperidine-4-carbonyl)-1H-pyrrolo[2,3-c]pyridin-1-yl)-N-isopropylbenzamide] | 59 | > 40 | 0.8
C[C@@H]1CCC[C@H](C)N1C(=O)c1cc(F)ccc1-n1cc(C(=O)C2CCN(C(=O)[C@H]3N[C@@H]4CC[C@H]3C4)CC2)c2ccncc21 [Example 33, (1-((1R,3S,4S)-2-Azabicyclo[2.2.1]heptane-3-carbonyl)piperidin-4-yl)(1-(2-((2R,6S)-2,6-dimethylpiperidine-1-carbonyl)-4-fluorophenyl)-1H-pyrrolo[2,3-c]pyridin-3-yl)methanone] | 207 | > 40 | 0.5
CC(C)c1ncsc1-c1cc(F)ccc1-n1cc(C(=O)C2CCN(C(=O)[C@H]3N[C@@H]4CC[C@H]3C4)CC2)c2ccncc21.O=CO [Example 42, (1-((1R,3S,4S)-2-Azabicyclo[2.2.1]heptane-3-carbonyl)piperidin-4-yl)(1-(4-fluoro-2-(4-isopropylthiazol-5-yl)phenyl)-1H-pyrrolo[2,3-c]pyridin-3-yl)methanone 1·formic acid] | 76 | > 40 | 1.3
CC(C)N(C(=O)c1cc(F)ccc1-n1cc(C(=O)C2CCN(C(=O)[C@H]3N[C@@H]4CC[C@H]3C4)CC2)c2c(F)cncc21)C(C)C.O=CO [Example 44, 2-(3-(1-((1R,3S,4S)-2-Azabicyclo[2.2.1]heptane-3-carbonyl)piperidine-4-carbonyl)-4-fluoro-1H-pyrrolo[2,3-c]pyridin-1-yl)-5-fluoro-N,N-diisopropylbenzamide 1·formic acid] | 117 | > 40 | 1
